From US20120029003A1, “GALECTIN-3 AND STATIN THERAPY” (BG Medicine, Inc., priority 2010, published 2012)

What was measured:
[1] = system: heart failure patients; conditions: unselected heart failure patients; CORONA and GISSI-HF trials; cited from earlier work
[2] = system: patients with chronic heart failure (HF); assay: Clinical trial of rosuvastatin vs placebo in chronic heart failure, analysed by baseline galectin-3 category; format: in vivo, human
From the text: A clinical trial enrolled patients with chronic heart failure (HF) (New York Heart Association functional class II, III or IV) and with left ventricular ejection fraction less than or equal to 40% (less than or equal to 35% for patients in New York Heart Association functional class II). The design and primary results of the trial are reported in published literature [J. Kjekshus et al., “Rosuvastatin in Older Patients with Systolic Heart Failure.” N Engl J. Med. 2007 Nov. 29; 357(22):2248-61]. Patients were randomly assigned to receive 10 milligrams of rosuvastatin or placebo per day. Of the patients in the trial, a subset of 1,462 subjects also participated in a sub-study in which blood was collected at baseline, defined as the time of enrollment in the trial. Baseline galectin-3 levels were evaluated in these […] subjects.
Blood plasma samples were drawn at baseline from participants in a non-fasting state. All samples were stored at −80° C. Plasma galectin-3 levels were determined on these plasma specimens using a commercial enzyme-linked immunosorbent assay (BGM Galectin-3 Assay; BG Medicine, Waltham, Mass.) according to the manufacturer's instructions.
Determination of galectin-3 concentration in serum samples was assessed using ELISA kits (BGM Galectin-3 Assay; BG Medicine Inc., Waltham, Mass., USA). The assay sensitivity (lowest concentration different from zero) was 0.96 ng/mL. Intra- and inter-assay variations were less than 8% and 10% respectively.
For the main objective of investigating the effects of rosuvastatin treatment according to baseline galectin-3 level, galectin-3 categories were defined based on the median baseline value across all 1,462 subjects for whom a galectin-3 measurement was available. For each of six endpoints, a formal interaction test was conducted within a Cox proportional hazards model comprising treatment group (binary variable), galectin-3 category (dichotomous variable), and the interaction term. Subsequently, Cox proportional hazards models were used to estimate the hazard ratios (HRs) and 95% confidence intervals (CIs) comparing rosuvastatin and placebo treatments by galectin-3 categories. Fully adjusted models included the following 11 covariates, all evaluated at baseline: age (per year), gender, LVEF (per unit), NYHA class (due to the small number of subjects with class IV, class III and IV were combined), body mass index (BMI) (per unit), diabetes mellitus (yes/no), intermittent claudication (yes/no), heart rate (per unit), estimated glomerular filtration rate (eGFR) (per unit), the ratio of apolipoprotein B to apolipoprotein A1, and N-terminal B-type natriuretic peptide (NT-proBNP) (the variable NT-proBNP was logarithmically transformed using base e). Incident event rates were analyzed using Poisson regression. Baseline characteristics were compared by galectin-3 category using Student's t-test for variables expressed as means and standard deviation. All P-values are two two-tailed. All analyses were performed with SAS software, version 9.1 (SAS Institute), or R software, version 2.

## CC(C)c1nc(N(C)S(C)(=O)=O)nc(-c2ccc(F)cc2)c1/C=C/[C@@H](O)C[C@@H](O)CC(=O)O [Rosuvastatin, rosuvastatin]
[1]
  clinical benefit of statin therapy in heart failure patients: did not demonstrate a significant clinical benefit
[2]; Galectin-3 > 19.0 ng/mL, 728 subjects
  Rate of subjects experiencing the primary outcome, Rosuvastatin rate: 15.1 per 100 person-years of follow-up
[2]; Galectin-3 ≦ 19.0 ng/mL, 734 subjects
  Rate of subjects experiencing the primary outcome, Rosuvastatin rate: 7.8 per 100 person-years of follow-up
[2]; baseline galectin-3 >19.0 ng/mL (N=728), 10 mg rosuvastatin per day, adjusted HR
  hazard ratio (HR) for the primary endpoint, rosuvastatin compared to placebo: 1.07
[2]; baseline galectin-3 >19.0 ng/mL, rosuvastatin group, 10 mg per day
  rate of primary events: 15.1 events per 100 patient-years
[2]; baseline galectin-3 less than or equal to 19.0 ng/mL (N=734), 10 mg rosuvastatin per day, adjusted for 11 clinical and biochemical covariates
  hazard ratio (HR) for the primary endpoint (earlier of cardiovascular death, non-fatal myocardial infarction or non-fatal stroke), rosuvastatin compared to placebo: 0.65
[2]; baseline galectin-3 less than or equal to 19.0 ng/mL, 7.8 vs 11.2 events per 100 patient-years
  difference in rate of primary events, rosuvastatin compared to placebo: 30.4%
[2]; baseline galectin-3 less than or equal to 19.0 ng/mL, subjects randomized to rosuvastatin 10 mg per day
  rate of primary events: 7.8 events per 100 patient-years
